According to the NIST ThermoML archive (doi:10.1016/j.jct.2016.04.006):

Assays:
[1] = mn = molality of the nth substance listed, in mol/kg; settings: 100 kPa, Liquid, Capillary tube (Ostwald / Ubbelohde) method
[2] = 100 kPa, Liquid, Capillary tube (Ostwald / Ubbelohde) method

C[C@@H](O)[C@@H](O)[C@H](O)[C@H](O)C=O [6-deoxy-D-mannose] + O
viscosity [mPa·s], [1]
Settings | m1 = 0.0395 | m1 = 0.0753 | m1 = 0.1036 | m1 = 0.1173 | m1 = 0.1403
288.15 K | 1.164 | 1.183 | 1.2 | 1.208 | 1.22
298.15 K | 0.91 | 0.922 | 0.933 | 0.945 | 0.951
308.15 K | 0.732 | 0.744 | 0.753 | 0.759 | 0.766
318.15 K | 0.607 | 0.616 | 0.623 | 0.626 | 0.633

OC[C@H]1O[C@@H](O[C@H]2[C@H](O)[C@@H](O)[C@H](O)O[C@@H]2CO)[C@H](O)[C@@H](O)[C@@H]1O [D-cellobiose] + O
viscosity [mPa·s], [1]
Settings | m1 = 0.0529 | m1 = 0.0639 | m1 = 0.0903 | m1 = 0.1292 | m1 = 0.1479 | m1 = 0.1603
288.15 K | 1.193 | 1.203 | 1.231 | 1.269 | 1.286 | 1.3
298.15 K | 0.928 | 0.941 | 0.961 | 0.99 | 1.001 | 1.011
308.15 K | 0.748 | 0.757 | 0.771 | 0.796 | 0.807 | 0.813
318.15 K | 0.621 | 0.625 | 0.64 | 0.657 | 0.664 | 0.67

NCC(=O)O [2-aminoacetic acid] + O
viscosity [mPa·s], [1]
Settings | m1 = 0.05 | m1 = 0.15 | m1 = 0.25 | m1 = 0.35 | m1 = 0.5
288.15 K | 1.146 | 1.16 | 1.175 | 1.19 | 1.213
298.15 K | 0.896 | 0.909 | 0.921 | 0.934 | 0.953
308.15 K | 0.723 | 0.735 | 0.745 | 0.755 | 0.77
318.15 K | 0.603 | 0.609 | 0.618 | 0.626 | 0.639

O [water]
[2]
Settings | viscosity [mPa·s]
288.15 K | 1.138
298.15 K | 0.89
308.15 K | 0.719
318.15 K | 0.596

OC[C@@H](O)[C@@H](O)[C@H](O)[C@H](O)CO [D-mannitol] + O
viscosity [mPa·s], [1]
Settings | m1 = 0.0578 | m1 = 0.0701 | m1 = 0.0837 | m1 = 0.12 | m1 = 0.1409 | m1 = 0.1659 | m1 = 0.1943
288.15 K | 1.181 | 1.19 | 1.199 | 1.224 | 1.236 | 1.254 | 1.278
298.15 K | 0.919 | 0.928 | 0.935 | 0.949 | 0.959 | 0.974 | 0.986
308.15 K | 0.741 | 0.746 | 0.753 | 0.763 | 0.771 | 0.779 | 0.791
318.15 K | 0.611 | 0.617 | 0.62 | 0.629 | 0.636 | 0.644 | 0.651

CO[C@H]1O[C@H](CO)[C@@H](O)[C@H](O)[C@@H]1O [α-methyl mannopyranoside] + O
viscosity [mPa·s], [1]
Settings | m1 = 0.0569 | m1 = 0.0853 | m1 = 0.1142 | m1 = 0.1318 | m1 = 0.1443
288.15 K | 1.172 | 1.188 | 1.208 | 1.217 | 1.229
298.15 K | 0.913 | 0.925 | 0.942 | 0.95 | 0.96
308.15 K | 0.742 | 0.75 | 0.756 | 0.765 | 0.77
318.15 K | 0.61 | 0.619 | 0.625 | 0.633 | 0.636

O=C[C@@H](O)[C@@H](O)[C@H](O)[C@H](O)CO [D-mannose] + O
viscosity [mPa·s], [1]
Settings | m1 = 0.0607 | m1 = 0.0751 | m1 = 0.0977 | m1 = 0.1215 | m1 = 0.134 | m1 = 0.1525 | m1 = 0.1822
288.15 K | – | 1.183 | 1.195 | 1.207 | 1.216 | 1.224 | 1.243
298.15 K | – | 0.921 | 0.931 | 0.94 | 0.945 | 0.954 | 0.966
308.15 K | 0.739 | 0.744 | 0.749 | 0.757 | 0.76 | 0.767 | 0.776
318.15 K | 0.61 | 0.614 | 0.62 | 0.625 | 0.629 | 0.635 | 0.64

O=C[C@H](O)[C@@H](O)[C@H](O)[C@H](O)CO [D-glucose] + O
viscosity [mPa·s], [1]
Settings | m1 = 0.0523 | m1 = 0.0745 | m1 = 0.0885 | m1 = 0.1034 | m1 = 0.1197 | m1 = 0.142
288.15 K | – | 1.183 | 1.185 | 1.192 | 1.205 | 1.219
298.15 K | 0.911 | 0.921 | 0.926 | 0.933 | 0.938 | 0.948
308.15 K | 0.735 | 0.743 | 0.747 | 0.751 | 0.756 | 0.762
318.15 K | 0.609 | 0.614 | 0.618 | 0.621 | 0.625 | 0.63
